From patent US5928860A, “Process for determining the tolerance, or toxicity of gaseous, liquid and/or viscous substances for the human or animal organism” (priority 1997, dated 1999)

What was measured:
[1] = test system: explants of neonatal rabbit kidneys; assay type: cell-based
Excerpt: An interactive tissue culture system was established for testing of toxicity. The culture system should provide information on whether the action of the substance perfluorophenathrene which changes the vessels can be established in vitro. Explants of neonatal rabbit kidneys were chosen as the test tissue. Antibodies for detection of vessels in the rabbit tissues are available in laboratory. In addition, the vascular system in this tissue has an extraordinarily high degree of spacial order. The preservation of the structure of the vascular system after application of the test substance was the parameter for assessment of the toxic effect in this test.
Tissue preparation: One to three day old rabbits were sacrificed by cervical dislocation. Organ explants were prepared immediately after removal of the kidneys.
The kidneys of neonatal rabbits are not yet completely developed. In the outermost region of the organ directly under the organ capsule, all nephron developments stages are found in addition to the embryonal tissue. Microsurgical organ explants were prepared from this region. To do this the kidneys were cut in half lengthwise. With fine tweezers the thin organ capsule was removed. With the organ capsule, the renal tissue still in development was detached. Proteases were not used in this preparation method, i.e. the organ-typical extracellular matrix and the intercellular connections remained intact. The organ explants were then stretched onto the retaining ring system.
Culture of the kidney explants: By using a retaining ring system it was possible to use tissue explants which had been […] for the tests. The tissue fragment was prepared in the corresponding size and fixed in the retaining ring. Proteolytic disintegration of the tissue, as can be necessary for culture in the conventional culture dish applications, was not carried out. The tissue fragment stretched onto the retaining ring was brought into contact with the tissue top or bottom with the test substance. The tissue top was defined as the side covered by the organ capsule. The tissue bottom was the tissue side exposed by the preparation. The tissue explants prepared in this way were cultivated with continuous throughflow of the medium. Use of perfusion culture technique in this case enabled complete abandonment of additives of fetal calf serum, adult serum or tissue extracts. The medium consists of a commercially available basic medium (Iscove's Modified Dulbecco's Medium, IMDM) to which the hormones aldosterone (10^-7 M) and 1.25 dihydroxyvitamin D3 (10^-9 M) have been added. In the presence of these hormones the structure of the renal tissue is completely preserved. Necroses were not observed even after culture times of more than 10 days.
For the perfusion culture, stretched explant 5 (organ samples) were inserted into the gradient chamber so that one upper and one lower compartment 6 or 7 are formed which are separated from one another by tissue 5. Upper compartment 6 was filled with the given test substance and no flow takes place through it in the experiment since the test substance was of viscous consistency. Throughflow of the test substance however would be possible in the application of liquid or gaseous substances.
Lower compartment 7 was filled with nutrient solution which was continuously pumped through the chamber compartment. Storage bottle 13 of the medium was connected via a hose connection 11 to the inlet 8 of lower chamber 7. Chamber outflow 9 was connected to the waste bottle. Storage bottle 13 was kept at 4° C. during the entire culture time. Supply hose 11 was inserted into 12 which ensured constant flushing of chamber with medium at 1 ml/h. […] Fundamentally other flow rates are possible. […]

rabbit eye [2] = details: in vivo
rabbit eye [3] = test: test of vitreous body replacements in the rabbit eye (animal test)

Excerpt for tumor cells: In this example, two of these replacements (the substances perfluorophenathrene and perfluorodecaline) were studied. The substances have been tested in a cell culture system.
Cell culture systems are outstandingly suited for detection of acute toxic effects. They allow prompt testing of the direct toxic effect. If the toxicity of a substance is however based on cellular interactions, other systems must be used for analysis.

Compound	Expression of EC 1 antigen [1]	Vascular structure [1]	expression of the EC 1 antigen / detection of endothelial cells [1]	damage to the retina or eye (rabbit eye [2])	Tissue structure [1]	preservation of the vascular network / vascular system in renal explants [1]	toxic effects in cell culture (tumor cells)	tolerance in animal test (rabbit eye [3])
FC1(F)C(F)(F)C(F)(F)C2(F)C(F)(C1(F)F)C(F)(F)C(F)(F)C1(F)C(F)(F)C(F)(F)C(F)(F)C(F)(F)C12F (stereo not shown) [Perfluorophenathrene, perfluorophenathrene]	+	-	expression of the EC 1 antigen was not influenced	major damage to the eye				
FC1(F)C(F)(F)C(F)(F)C2(F)C(F)(F)C(F)(F)C(F)(F)C(F)(F)C2(F)C1(F)F (stereo not shown) [Perfluorodecaline, perfluorodecaline]	+	+			+	excellent preservation of the vascular system	no indications of toxic effects	good tolerance
